According to US20100087481A1, “ORAL PHARMACEUTICAL FORMULATIONS FOR ANTIDIABETIC COMPOUNDS” (priority 2008, published 2010):
Like-named read-outs stand apart in the source and are kept apart here.

How the values were obtained:
[1] = Chemical stability in selected oil-based media; assay type: physicochemical
Procedure: Studies were performed over a 2 week period at −20° C., 2-8° C., 40° C./75% RH and 60° C. At the elevated temperatures, chemical stability was monitored in the presence and absence of argon. Additionally, the pH stability of the drug was assessed over a seven week period at 40° C./75% RH, pH 2, 3, 5, 7, 9, and 10. […] In oil-based media containing neat Capmul® MCM or phosphatidylcholine (Phospholipon® 90G, Phosal® 53 MCT), drug recovery was >99%. […] The degradation observed in Capmul® MCM was inhibited by the addition of argon.

[2] = in aqueous solvents and in most organic solvents; cited from earlier work
[3] = Physical stability in selected oil-based media (visual); assay type: physicochemical
Text: Physical stability of the drug was monitored visually.

[4] = Solubility in selected oil-based media; assay type: physicochemical; settings: oil or lipid, read-out: Solubility, Concentration

- Drug degradation ([1]; in Capmul® MCM at 60° C.): 7%
- Effect of argon on degradation ([1]; in Capmul® MCM, addition of argon): inhibited
- Drug degradation ([1]; in Phosal® 53 MCT at 60° C.): no drug degradation
- Degradation of the drug ([1]; in the presence of Labrasol®, Capmul® MCM and Phospholipon® 90G, 40° C., 2-week period): little or no degradation
- Physical stability (visual) ([3]; addition of 47% Capmul® MCM to oil-based media containing Phospholipon® 90G): inhibited solid formation
- Physical stability (visual) ([3]; high concentrations of Capmul® (>80%)): solidification and cloudiness
- Physical stability (visual) ([3]; warming then cooling compositions with more than 50% Phospholipon® 90G): formation of a fine suspension
- solubility ([4]; Capmul® MCM (oil-based medium), in Capmul ® MCM): 16600 µg/mL
- solubility ([4]; Capmul® PG8 (oil-based medium), in Capmul ® PG8): 2010 µg/mL
- solubility ([4]; Captex® 200 (oil-based medium), in Captex ® 200): 450 µg/mL
- solubility ([4]; Captex® 300EP (oil-based medium), in Captex ® 300EP): 280 µg/mL
- solubility ([4]; Captex® 355 (oil-based medium), in Captex ® 355): 520 µg/mL
- solubility ([4]; Crodamol® (oil-based medium), in Crodamol ®): 450 µg/mL
- solubility ([4]; Inwitor 742 (oil-based medium), in Inwitor 742): 7930 µg/mL
- solubility ([4]; Labrafac® CC (oil-based medium), in Labrafac ® CC): 290 µg/mL
- solubility ([4]; Labrafil® M 1944 CS (oil-based medium), in Labrafil ® M 1944 CS): 2340 µg/mL
- solubility ([4]; Labrasol® (oil-based medium), in Labrasol ®): 29200 µg/mL
- solubility ([4]; Maisine 35-I (oil-based medium), in Maisine 35-I): 1160 µg/mL
- solubility ([4]; Miglyol® 132 (oil-based medium), in Miglyol ® 132): 800 µg/mL
- solubility ([4]; Miglyol® 810N (oil-based medium), in Miglyol ® 810N): 380 µg/mL
- solubility ([4]; Miglyol® 812N (oil-based medium), in Miglyol ® 812N): 7930 µg/mL
- solubility ([4]; Peceol (oil-based medium), in Peceol): 3940 µg/mL
- solubility ([4]; Phosal® 53 MCT (oil-based medium), in Phosal ® 53 MCT): 43400 µg/mL
- solubility ([4]; in Corn Oil): 160 µg/mL
- solubility ([4]; in Super-refined soybean oil): 40 µg/mL
Structure (SMILES): O=S(=O)(Nc1cc(Cl)c(Oc2cnc3ccccc3c2)c(Cl)c1)c1ccc(Cl)cc1Cl.O=S(=O)(O)c1ccccc1 [besylate salt of compound 101, 2,4-Dichloro-N-[3,5-dichloro-4-(quinolin-3-yloxy)-phenyl]-benzenesulfonamide benzenesulfonate salt]
- Solubility in words [2]: sparingly soluble
